Experimental data as given in the kinase profiling compilation of Christmann-Franck et al. (2016).

Key:
Assay in all cases: KINOMEscan competition binding
[1] = molecular target: TNK2 (human) (UniProt Q07912)
[2] = molecular target: AKT2 (human) (UniProt P31751)
[3] = molecular target: SIK1 (human) (UniProt P57059)
[4] = molecular target: ABL2 (human) (UniProt P42684)
[5] = molecular target: JAK1 JH2 pseudokinase (human) (UniProt P23458)
[6] = molecular target: GAK (human) (UniProt O14976)
[7] = molecular target: CDK11B (human) (UniProt P21127)
Sequence of CDK11B (human) (P21127 whole entry, looked up): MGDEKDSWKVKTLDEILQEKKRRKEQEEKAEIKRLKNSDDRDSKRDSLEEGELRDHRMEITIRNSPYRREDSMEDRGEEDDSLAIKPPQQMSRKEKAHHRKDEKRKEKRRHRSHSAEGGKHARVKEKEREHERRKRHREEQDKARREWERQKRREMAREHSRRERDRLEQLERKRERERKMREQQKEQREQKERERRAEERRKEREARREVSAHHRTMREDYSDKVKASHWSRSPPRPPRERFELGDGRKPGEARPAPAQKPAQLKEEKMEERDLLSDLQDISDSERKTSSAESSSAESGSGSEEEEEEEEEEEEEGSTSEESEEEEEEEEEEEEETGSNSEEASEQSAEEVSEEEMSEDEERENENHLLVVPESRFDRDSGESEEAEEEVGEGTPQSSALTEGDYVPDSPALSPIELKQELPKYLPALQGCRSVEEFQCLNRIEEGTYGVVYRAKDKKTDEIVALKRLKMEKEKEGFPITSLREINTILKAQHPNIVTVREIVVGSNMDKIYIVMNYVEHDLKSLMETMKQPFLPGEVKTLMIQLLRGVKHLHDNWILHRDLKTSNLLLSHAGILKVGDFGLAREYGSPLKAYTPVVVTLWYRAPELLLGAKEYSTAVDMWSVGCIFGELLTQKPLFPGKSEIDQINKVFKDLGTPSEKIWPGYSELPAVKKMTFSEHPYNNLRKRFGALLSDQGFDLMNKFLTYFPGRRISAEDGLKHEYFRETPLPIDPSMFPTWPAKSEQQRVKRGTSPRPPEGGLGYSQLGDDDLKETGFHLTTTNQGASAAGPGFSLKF

[8] = molecular target: CHEK2 (human) (UniProt O96017)
[9] = molecular target: PIM1 (human) (UniProt P11309)
[10] = molecular target: CDKL2 (human) (UniProt Q92772)
[11] = molecular target: RPS6KA6 KD2 (human) (UniProt Q9UK32)
[12] = molecular target: RIPK2 (human) (UniProt O43353)
Sequence of RIPK2 (human) (O43353 whole entry, looked up): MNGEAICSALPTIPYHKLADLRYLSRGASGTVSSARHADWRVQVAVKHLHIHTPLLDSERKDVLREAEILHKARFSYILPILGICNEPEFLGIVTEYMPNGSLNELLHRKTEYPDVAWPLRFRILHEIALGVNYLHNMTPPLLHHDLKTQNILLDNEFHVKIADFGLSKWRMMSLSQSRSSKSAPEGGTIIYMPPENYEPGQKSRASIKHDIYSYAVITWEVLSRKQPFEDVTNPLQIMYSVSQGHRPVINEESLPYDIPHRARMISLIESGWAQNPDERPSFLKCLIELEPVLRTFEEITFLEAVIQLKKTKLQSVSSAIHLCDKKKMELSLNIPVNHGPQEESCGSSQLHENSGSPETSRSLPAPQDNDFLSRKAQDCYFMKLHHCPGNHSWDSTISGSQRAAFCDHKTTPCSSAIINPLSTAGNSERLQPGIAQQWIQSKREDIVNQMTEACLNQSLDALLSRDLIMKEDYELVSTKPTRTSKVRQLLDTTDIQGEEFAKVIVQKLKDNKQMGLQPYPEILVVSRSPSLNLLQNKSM

[13] = molecular target: LIMK1 (human) (UniProt P53667)
[14] = molecular target: MAP4K2 (human) (UniProt Q12851)
[15] = molecular target: MAP3K9 (human) (UniProt P80192)
[16] = molecular target: CLK4 (human) (UniProt Q9HAZ1)
Sequence of CLK4 (human) (Q9HAZ1 whole entry, looked up): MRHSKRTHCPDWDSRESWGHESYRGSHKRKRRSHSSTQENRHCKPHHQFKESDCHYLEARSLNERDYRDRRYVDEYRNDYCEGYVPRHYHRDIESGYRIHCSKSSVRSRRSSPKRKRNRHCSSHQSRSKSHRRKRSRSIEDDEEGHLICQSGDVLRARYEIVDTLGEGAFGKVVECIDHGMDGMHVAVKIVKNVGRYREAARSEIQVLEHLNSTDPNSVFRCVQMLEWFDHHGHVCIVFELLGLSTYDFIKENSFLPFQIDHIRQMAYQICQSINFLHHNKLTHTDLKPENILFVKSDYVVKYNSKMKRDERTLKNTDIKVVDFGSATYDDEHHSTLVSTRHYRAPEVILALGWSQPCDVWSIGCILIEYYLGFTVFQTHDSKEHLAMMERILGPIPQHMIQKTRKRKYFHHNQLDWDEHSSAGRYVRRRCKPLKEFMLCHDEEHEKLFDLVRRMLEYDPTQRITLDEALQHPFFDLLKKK

[17] = molecular target: YSK4 (human) (UniProt Q56UN5)
[18] = molecular target: ABL1 (human), P00519 [H396P]
[19] = molecular target: STK25 (human) (UniProt O00506)
Sequence of STK25 (human) (O00506 whole entry, looked up): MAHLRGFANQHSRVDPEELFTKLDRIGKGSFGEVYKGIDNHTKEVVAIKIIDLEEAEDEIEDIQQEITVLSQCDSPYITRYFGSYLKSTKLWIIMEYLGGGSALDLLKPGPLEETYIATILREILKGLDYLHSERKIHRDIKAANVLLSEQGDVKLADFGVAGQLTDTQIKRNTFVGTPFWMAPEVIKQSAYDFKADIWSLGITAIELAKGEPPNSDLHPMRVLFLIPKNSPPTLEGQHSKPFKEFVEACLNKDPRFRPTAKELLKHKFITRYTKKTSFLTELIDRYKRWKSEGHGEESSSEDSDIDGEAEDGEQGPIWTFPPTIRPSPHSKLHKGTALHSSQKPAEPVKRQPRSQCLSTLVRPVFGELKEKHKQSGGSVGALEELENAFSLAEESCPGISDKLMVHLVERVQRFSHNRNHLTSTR

[20] = molecular target: NLK (human) (UniProt Q9UBE8)
[21] = molecular target: SRMS (human) (UniProt Q9H3Y6)
[22] = molecular target: STK39 (human) (UniProt Q9UEW8)
[23] = molecular target: MAPK11 (human) (UniProt Q15759)
[24] = molecular target: PLK4 (human) (UniProt O00444)
[25] = molecular target: CIT (human) (UniProt O14578)
Sequence of CIT (human) (O14578 whole entry, looked up): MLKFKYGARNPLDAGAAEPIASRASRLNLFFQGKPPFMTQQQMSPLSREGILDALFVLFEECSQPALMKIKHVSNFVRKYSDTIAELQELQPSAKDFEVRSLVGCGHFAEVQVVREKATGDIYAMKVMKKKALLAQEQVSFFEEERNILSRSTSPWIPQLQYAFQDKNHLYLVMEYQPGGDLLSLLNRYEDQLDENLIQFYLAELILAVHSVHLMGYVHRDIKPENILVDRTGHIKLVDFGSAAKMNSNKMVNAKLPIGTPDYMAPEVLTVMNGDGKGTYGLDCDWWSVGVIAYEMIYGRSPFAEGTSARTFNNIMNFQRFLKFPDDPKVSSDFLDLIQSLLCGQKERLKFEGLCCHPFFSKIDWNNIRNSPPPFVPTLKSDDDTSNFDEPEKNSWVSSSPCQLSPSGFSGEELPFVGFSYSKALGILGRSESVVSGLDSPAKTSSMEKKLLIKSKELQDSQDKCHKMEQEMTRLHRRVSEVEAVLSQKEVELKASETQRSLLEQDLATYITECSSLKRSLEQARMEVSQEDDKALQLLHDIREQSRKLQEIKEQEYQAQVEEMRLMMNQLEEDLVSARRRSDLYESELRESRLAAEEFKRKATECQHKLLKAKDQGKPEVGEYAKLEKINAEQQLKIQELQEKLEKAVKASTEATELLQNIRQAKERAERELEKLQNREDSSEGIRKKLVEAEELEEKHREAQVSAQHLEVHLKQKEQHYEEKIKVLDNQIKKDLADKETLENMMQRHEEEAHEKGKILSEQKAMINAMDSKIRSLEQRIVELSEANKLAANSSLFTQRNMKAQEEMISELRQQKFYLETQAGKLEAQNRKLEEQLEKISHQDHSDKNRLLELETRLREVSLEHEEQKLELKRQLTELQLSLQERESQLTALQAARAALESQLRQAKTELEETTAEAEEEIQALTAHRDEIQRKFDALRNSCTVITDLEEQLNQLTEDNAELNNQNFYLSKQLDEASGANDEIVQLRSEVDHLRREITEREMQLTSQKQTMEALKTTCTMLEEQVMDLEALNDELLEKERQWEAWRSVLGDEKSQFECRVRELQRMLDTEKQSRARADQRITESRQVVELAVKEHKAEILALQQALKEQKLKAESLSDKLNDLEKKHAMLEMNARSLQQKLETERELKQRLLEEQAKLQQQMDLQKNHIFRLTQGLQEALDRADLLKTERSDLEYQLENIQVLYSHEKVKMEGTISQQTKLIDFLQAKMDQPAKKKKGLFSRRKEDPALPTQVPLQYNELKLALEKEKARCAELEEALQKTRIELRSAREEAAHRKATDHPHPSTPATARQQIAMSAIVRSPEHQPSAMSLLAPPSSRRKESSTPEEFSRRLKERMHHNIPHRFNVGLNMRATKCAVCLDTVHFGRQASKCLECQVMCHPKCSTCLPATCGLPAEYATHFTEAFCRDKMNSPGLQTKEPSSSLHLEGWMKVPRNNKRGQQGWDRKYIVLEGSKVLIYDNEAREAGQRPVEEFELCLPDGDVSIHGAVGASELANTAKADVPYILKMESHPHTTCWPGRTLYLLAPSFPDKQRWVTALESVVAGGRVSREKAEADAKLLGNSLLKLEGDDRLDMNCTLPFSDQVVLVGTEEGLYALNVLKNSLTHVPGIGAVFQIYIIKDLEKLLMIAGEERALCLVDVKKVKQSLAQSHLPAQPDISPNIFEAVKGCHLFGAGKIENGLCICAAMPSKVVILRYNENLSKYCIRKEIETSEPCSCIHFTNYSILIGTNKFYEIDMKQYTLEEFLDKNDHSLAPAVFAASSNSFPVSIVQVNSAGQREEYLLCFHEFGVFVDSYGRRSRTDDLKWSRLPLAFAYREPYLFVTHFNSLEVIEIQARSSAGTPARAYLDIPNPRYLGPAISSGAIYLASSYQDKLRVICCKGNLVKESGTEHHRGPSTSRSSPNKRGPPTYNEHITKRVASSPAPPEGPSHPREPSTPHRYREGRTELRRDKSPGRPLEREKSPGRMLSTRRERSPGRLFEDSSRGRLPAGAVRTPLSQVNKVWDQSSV

[26] = molecular target: TXK (human) (UniProt P42681)
[27] = molecular target: CDK5 (human) (UniProt Q00535)
[28] = molecular target: GSK3A (human) (UniProt P49840)
[29] = molecular target: BTK (human) (UniProt Q06187)
[30] = molecular target: LTK (human) (UniProt P29376)
[31] = molecular target: CDK15 (human) (UniProt Q96Q40)
[32] = molecular target: FGFR1 (human) (UniProt P11362)
[33] = molecular target: RIOK2 (human) (UniProt Q9BVS4)
[34] = molecular target: PRKAA1 (human) (UniProt Q13131)
[35] = molecular target: FGR (human) (UniProt P09769)
[36] = molecular target: ADCK4 (human) (UniProt Q96D53)
[37] = molecular target: MERTK (human) (UniProt Q12866)
[38] = molecular target: MAP3K12 (human) (UniProt Q12852)
[39] = molecular target: MAPK8 (human) (UniProt P45983)
[40] = molecular target: PRKD1 (human) (UniProt Q15139)
[41] = molecular target: TESK1 (human) (UniProt Q15569)

Sequence of SIK1 (human) (P57059 whole entry, looked up): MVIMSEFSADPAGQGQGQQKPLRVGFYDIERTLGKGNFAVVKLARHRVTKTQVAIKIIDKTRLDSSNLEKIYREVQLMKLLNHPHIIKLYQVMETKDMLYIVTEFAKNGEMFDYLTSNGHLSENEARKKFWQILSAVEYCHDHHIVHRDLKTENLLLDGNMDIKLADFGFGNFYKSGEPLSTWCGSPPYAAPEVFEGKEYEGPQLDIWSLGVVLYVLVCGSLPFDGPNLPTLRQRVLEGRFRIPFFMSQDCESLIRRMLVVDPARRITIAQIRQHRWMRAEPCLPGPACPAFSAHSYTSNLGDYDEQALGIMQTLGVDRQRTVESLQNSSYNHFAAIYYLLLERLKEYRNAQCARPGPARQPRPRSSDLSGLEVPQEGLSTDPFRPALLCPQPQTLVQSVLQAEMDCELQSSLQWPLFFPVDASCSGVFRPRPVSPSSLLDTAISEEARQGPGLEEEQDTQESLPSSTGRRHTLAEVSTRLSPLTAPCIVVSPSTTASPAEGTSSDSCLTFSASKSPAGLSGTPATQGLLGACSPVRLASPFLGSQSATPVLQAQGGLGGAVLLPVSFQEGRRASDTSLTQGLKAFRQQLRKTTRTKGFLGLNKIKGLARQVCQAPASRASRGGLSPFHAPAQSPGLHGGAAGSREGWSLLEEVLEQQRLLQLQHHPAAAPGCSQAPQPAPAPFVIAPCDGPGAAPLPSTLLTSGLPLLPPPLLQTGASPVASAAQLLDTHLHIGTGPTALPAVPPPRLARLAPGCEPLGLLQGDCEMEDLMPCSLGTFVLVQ

COc1cc2ncnc(Oc3cccc(NC(=O)Nc4cc(C(C)(C)C(F)(F)F)on4)c3)c2cc1OC
Kd [1]: 8700 nM
Kd [2]: 8400 nM
Kd [3]: 1800 nM
Kd [4]: 14 nM
Kd [5]: 33000 nM
Kd [6]: 2300 nM
Kd [7]: 270 nM
Kd [8]: 8700 nM
Kd [9]: 29000 nM
Kd [10]: 43 nM
Kd [11]: 6400 nM
Kd [12]: 16 nM
Kd [13]: 27000 nM
Kd [14]: 980 nM
Kd [15]: 1500 nM
Kd [16]: 16000 nM
Kd [17]: 3.7 nM
Kd [18]: 11 nM
Kd [19]: 19000 nM
Kd [20]: 270 nM
Kd [21]: 3000 nM
Kd [22]: 37000 nM
Kd [23]: 15 nM
Kd [24]: 15000 nM
Kd [25]: 210 nM
Kd [26]: 190 nM
Kd [27]: 11000 nM
Kd [28]: 6000 nM
Kd [29]: 9000 nM
Kd [30]: 1200 nM
Kd [31]: 430 nM
Kd [32]: 840 nM
Kd [33]: 36000 nM
Kd [34]: 8700 nM
Kd [35]: 110 nM
Kd [36]: 26000 nM
Kd [37]: 1300 nM
Kd [38]: 35000 nM
Kd [39]: 100 nM
Kd [40]: 7300 nM
Kd [41]: 38000 nM
